Reference: patent US11932606B2, “Anti-cancer/anti-fibrosis compounds” (THE REGENTS OF THE UNIVERSITY OF CALIFORNIA, priority 2017, dated 2024)
pIC50: −log10 of the molar value. Like-named read-outs stand apart in the source and are kept apart here.

Columns and labels:
[1] = target: CDK8/cyclinC (Homo sapiens (Human), UniProt P49336); assay: CDK8 LanthaScreen Eu kinase binding assay; conditions: read-out: IC50 against CDK8
Protocol: CDK8 Enzymatic Activity Inhibition: Determination of IC50 Values for Selected Compounds
The half maximal inhibitory concentration (IC50) with respect to CDK8 inhibition was determined for the compounds of the invention by using LanthaScreen™ Eu kinase binding assay from ThermoFisher Scientific's SelectScreen™ Biochemical Kinase Profiling Service (Waltham, MA). Compounds were screened in 1% DMSO (final) in the well. For 10 point titrations, 3-fold serial dilutions were conducted from the starting concentration.
The 2×CDK8/cyclinC/Eu-anti-His mixture is prepared in kinase buffer A (50 mM HEPES pH 7.5, 0.01% BRIJ-35, 10 mM MgCl2, 1 mM EGTA). The Bar-coded, low volume, white 384-well plate (Greiner Cat. #784207) were used for the assay. 160 nL of 100× test compound in 100% DMSO, 3.84 uL of kinase buffer A, 8 uL of 2×CDK8/cyclinC/Eu-anti-His mixture, and 4 uL of 4× tracer 236 were mixed and shaked for 30 seconds. Then the Kinase Reaction was incubated at room temperature for 60 minutes. After the 1 hour Kinase Reaction incubation, the plate was read on a fluorescence plate reader (Infinite F500, Tecan Systems Inc, USA), and data was analyzed using XLfit from IDBS. The dose response curve was curve fit to model number 205 (sigmoidal dose-response model).

[2] = target: CDK19 (inactive) (Homo sapiens (Human), UniProt Q9BWU1); assay: CDK19 (inactive) LanthaScreen Eu kinase binding assay; conditions: read-out: IC50 against CDK19
Chain of CDK19 (inactive) (Q9BWU1 whole entry): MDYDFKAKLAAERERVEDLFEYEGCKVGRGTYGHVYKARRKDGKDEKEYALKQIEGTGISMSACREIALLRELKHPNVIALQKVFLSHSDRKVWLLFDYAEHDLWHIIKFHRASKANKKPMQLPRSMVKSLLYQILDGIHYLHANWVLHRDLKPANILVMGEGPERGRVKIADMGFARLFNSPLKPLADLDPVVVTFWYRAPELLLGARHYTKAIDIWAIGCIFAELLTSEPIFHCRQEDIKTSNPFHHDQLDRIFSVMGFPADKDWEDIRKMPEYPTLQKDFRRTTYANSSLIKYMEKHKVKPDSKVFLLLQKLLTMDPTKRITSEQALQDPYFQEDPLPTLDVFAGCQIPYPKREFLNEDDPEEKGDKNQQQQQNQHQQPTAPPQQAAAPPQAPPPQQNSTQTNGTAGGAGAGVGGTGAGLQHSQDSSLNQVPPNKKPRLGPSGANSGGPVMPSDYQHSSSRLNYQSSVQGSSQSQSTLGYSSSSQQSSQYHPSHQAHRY
Protocol: Compounds were screened in 1% DMSO (final) in the well. For 10 point titrations, 3-fold serial dilutions were conducted from the starting concentration.
The Bar-coded, low volume, white 384-well plate (Greiner Cat. #784207) were used for the assay. […] Then the Kinase Reaction was incubated at room temperature for 60 minutes. After the 1 hour Kinase Reaction incubation, the plate was read on a fluorescence plate reader (Infinite F500, Tecan Systems Inc, USA) and data was analyzed using XLfit from IDBS. The dose response curve was curve fit to model number 205 (sigmoidal dose-response model).

[3] = test system: SET-2; assay: AML cell viability (CellTiter-Glo, day 7); assay type: cell-based; conditions: Homo sapiens
[4] = test system: colorectal cancer cell line SW620; assay: Synergy experiment of Compound 29 and 2DG, cell viability; assay type: cell-based
Protocol: SW620 cells were plated (96-well) in triplicate at 500 cells per well for testing (n=3) with 5 mM 2-DG and different concentrations of compound 29 (0-10 uM). Medium was changed once on day 3. On day 7, the CellTiter-Glo Luminescent Cell Viability Assay (Promega) was performed to measure the response. For cell viability assay, two independent experiments have been done.

[5] = test system: MOLM-14 AML cancer cell line; assay: Western blot of treated cells; assay type: cell-based; conditions: MOLM-14, 30 nM up to 3 μM, 24 hours and 48 hours
[6] = test system: MV-4-11 xenograft; assay: MV-4-11 mouse xenograft model; assay type: in vivo; conditions: 50 mg/kg orally b.i.d., 21 days
Protocol: 40 CR female NCr nu/nu mice (Charles River Laboratories) were injected with 1×10^7 MV-4-11 cells in 50% matrigel s.c. in flank. Cell Injection Volume is 0.1 mL/mouse for MV-4-11 cells. Age of mice at start date is 8 to 12 weeks. Perform a pair match when tumors grow after two weeks and begin treatment. Compound 29 was given orally twice a day for 21 consecutive days. Body weight and tumor size were measured every three days. In the MV-4-11 xenograft model, mice were treated with compound 29 with 50 mg/kg for 21 days (orally, b.i.d). The tumor volume from control and vehicle group were measured, compared. […] Body weights of mice in both groups were measured and plotted.

Chain of CDK8/cyclinC (P49336 whole entry): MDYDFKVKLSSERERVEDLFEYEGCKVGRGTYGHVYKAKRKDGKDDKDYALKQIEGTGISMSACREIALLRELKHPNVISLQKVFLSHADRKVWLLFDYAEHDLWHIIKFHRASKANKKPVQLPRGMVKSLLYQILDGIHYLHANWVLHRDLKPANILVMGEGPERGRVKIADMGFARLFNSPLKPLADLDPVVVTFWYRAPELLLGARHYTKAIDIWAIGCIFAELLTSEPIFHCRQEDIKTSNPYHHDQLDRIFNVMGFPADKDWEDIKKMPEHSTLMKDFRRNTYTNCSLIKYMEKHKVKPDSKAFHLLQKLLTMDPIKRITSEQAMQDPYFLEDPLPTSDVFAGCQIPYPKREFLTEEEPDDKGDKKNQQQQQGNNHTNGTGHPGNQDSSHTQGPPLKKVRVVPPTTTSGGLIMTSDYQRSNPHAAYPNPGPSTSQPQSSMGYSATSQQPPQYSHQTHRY
Chain of CDK8/cyclinC (P24863 whole entry partner): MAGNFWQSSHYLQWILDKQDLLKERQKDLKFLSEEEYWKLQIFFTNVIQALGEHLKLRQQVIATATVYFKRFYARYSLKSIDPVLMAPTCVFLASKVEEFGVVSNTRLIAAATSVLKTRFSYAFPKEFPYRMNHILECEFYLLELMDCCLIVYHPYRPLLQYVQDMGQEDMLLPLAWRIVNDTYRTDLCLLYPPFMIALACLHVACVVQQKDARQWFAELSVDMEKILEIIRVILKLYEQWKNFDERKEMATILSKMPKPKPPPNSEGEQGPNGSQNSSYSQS

For `Nc1nccc2c(Br)cc3cc(C(=O)[O-])ccc3c12.[Na+]` [Compound 29, Sodium 1-amino-5-bromobenzo[h]isoquinoline-8-carboxylate], the pIC50 [1] was greater than 6.52, the pIC50 [2] was greater than 6.52 and the pIC50 ([3]; 168 h, SET-2, day 7, read-out: Cell viability IC50) was greater than 6.00. The pIC50 ([3]; SET-2, text statement, read-out: potency in cell viability assay) was greater than 6.00, the pIC50 ([4]; Homo sapiens, SW-620, 168 h, SW620, without 2DG, day 7, read-out: Cell viability IC50 of Compound 29 alone) was 5.00 to 6.00 and the “Synergy with 2DG in viability assay” value ([4]; SW620, 5 mM 2DG) was “synergizes with 2DG”. The “level of p-STAT1(Ser727), p-STAT3(Tyr705), p-STAT5(Ser726) and YAP” value [5] was “down regulate”, the Body weight [6] was “didn't suffer from weight loss” and the “Tumor volume vs control group” value ([6]; last measurement point) was “only about half the size of tumors from the control group”.
